This is an account of results in patent US8791132B2, “Compounds and methods for treatment of hypertension” (Medivation Technologies, Inc., priority 2011, dated 2014).

Structures are written as SMILES. Values joined by “and” are separate entries in the source; they are usually repeats but may differ in a detail not shown here. Equal entries are not always repeated. Where two headings read alike, the source gives them in different places.

In assay [1] the test system is SH-SY5Y cells over-expressing α-syn. As to the kind of experiment: Cell viability (MTS reduction) in SH-SY5Y cells over-expressing α-synuclein. Particulars: Homo sapiens, 336 h, α-syn over-expression (−dox), compounds at 0.1 nM, +dox control = 100, 14 days, read-out: Relative cell viability protection. The format is cell-based. How it is done:
Cell Culture. SH-SY5Y cells stably transfected with a doxycyline-inducible wild-type α-synuclein (α-syn) gene along with control SH-SY5Y cells over-expressing the β-galactosidase (β-gal) gene (a gift from L. Stefanis, Division of Basic Neurosciences, Biomedical Research Foundation of the Academy of Athens, Athens, Greece) are cultured as described by Vekrellis et al. (Vekrellis K, Xilouri M, Emmanouilidou E, Stefanis L. (2009). Inducible over-expression of α-syn in human neuronal cells leads to caspase-dependent non-apoptotic death. J Neurochem 109, 1348-1362). In accordance with this method, cells are cultured and maintained in RPMI 1640, 10% fetal bovine serum supplemented with 250 μg/mL G418 and 50 μg/mL Hygromycin B. Expression of α-syn is switched off in stock cultures with doxycycline (2 μg/mL). For experimental procedures, cells are plated at (4−8×10^4 cells/cm^2) and differentiated in absence of doxycycline and in the presence of 20 μM all-trans retinoic acid (RA) (Sigma, St Louis, Mo., USA).
Viability Assay: Cells are cultured in 96-well plates. After 24 h, cells are treated with RA and Compounds of Invention at 0.1 and 10 nM in the absence of doxycyline. Culture medium with RA and drugs is fully replaced after 7 days. Cell viability is measured by the release of lactate dehydrogenase (LDH) from necrotic cells into the culture medium and by measuring the capacity of cells to metabolize MTS tetrazolium (MTS) after 14 days in culture. LDH leakage is assessed according to the Cytotoxicity Detection KitPlus (Roche, Mannheim, Germany) and MTS reduction is assessed by the CellTiter 96® AQueous One Solution Cell Proliferation assay (Promega Corporation, Madison, Wis., USA).
Assay results for the experiments with α-syn over-expression are presented as the MTS reduction capacity (cell viability) of control cells (+dox), cells over-expressing α-syn (−dox), and cells over-expressing α-syn incubated with Compounds of the Invention at 0.1 nM (FIG. 18A) or 10 nM (FIG. 18B).
A general note: Formazan colour is commonly taken as a measure of viable cells.

Assay [2] relates to spontaneously hypertensive rats (SHR). As to the kind of experiment: Blood pressure in spontaneously hypertensive rat (SHR) model of hypertension. In kind it is in vivo. Particulars: for systolic blood pressure lowering effects: escalating doses 1, 3, 10 and 30 mg/kg/iv for every 30 minutes (FIGS. 20-22). How it is done: Male spontaneously hypertensive rats (SHR), approximately 3 months of age and weighting approximately 250 grams were utilized. Free access to standard lab chow for rats and reverse osmosis (RO) water was granted. All aspects of this work, including housing, experimentation and disposal of animals were performed in general accordance with the Guide for the Care and Use of Laboratory Animals (National Academy Press, Washington, D.C., 1996).
The animals were anaesthetized with sodium pentobarbital (50 mg/kg IP). The left carotid artery when compound dosed orally (PO) or subcutaneously (SC); and both left carotid and femoral artery when compound dosed intravenous (i.v.) were cannulated with a polyethylene catheter (38 cm in length; PE60, Portex, Ltd.) connected with a polyurethane tubing (12 cm in length; PU-40, Cat. #BB520-40, Scientific Commodities, Inc.), which was tunneled under the skin and exited through the nape of the neck. The arterial cannula was connected to a pressure transducer through a swivel system, allowing free roaming during continuous recording of mean arterial pressure and heart rate. The animals were housed individually with food and water freely available during recovery. On the following day, the arterial cannula was connected via a Statham (P 23×L) pressure transducer to a NEC/San-Ei amplifier and data acquisition and analysis system (Power Lab 8/SP) for direct mean arterial pressure and heart rate measurements.
The test compounds, dissolved in sterile saline, were administered subcutaneously (SC) or orally (PO), or by intravenous (i.v.) bolus administration in two minutes or the escalating doses of compound administration in every 30 minutes, with each dose and its strength delivered over 2 minutes as shown in the respective figures; the internal standard phentolamine was given by oral gavage. The control group received vehicle alone. Immediately before (−10 min and −5 min) and at 15 min, 30 min, 1 hr, 1.5 hr, 2 hr, 2.5 hr, 3 hr, 3.5 hr, and 4 hr post-dosing, systolic pressure blood pressure values were recorded.

The target of assay [3] is T1, human recombinant adrenergic α2B receptor (Homo sapiens, UniProt P18089).
T1 construct: expressed in transfected cells; host or cells: CHO-K1
T1 sequence (P18089 1-450): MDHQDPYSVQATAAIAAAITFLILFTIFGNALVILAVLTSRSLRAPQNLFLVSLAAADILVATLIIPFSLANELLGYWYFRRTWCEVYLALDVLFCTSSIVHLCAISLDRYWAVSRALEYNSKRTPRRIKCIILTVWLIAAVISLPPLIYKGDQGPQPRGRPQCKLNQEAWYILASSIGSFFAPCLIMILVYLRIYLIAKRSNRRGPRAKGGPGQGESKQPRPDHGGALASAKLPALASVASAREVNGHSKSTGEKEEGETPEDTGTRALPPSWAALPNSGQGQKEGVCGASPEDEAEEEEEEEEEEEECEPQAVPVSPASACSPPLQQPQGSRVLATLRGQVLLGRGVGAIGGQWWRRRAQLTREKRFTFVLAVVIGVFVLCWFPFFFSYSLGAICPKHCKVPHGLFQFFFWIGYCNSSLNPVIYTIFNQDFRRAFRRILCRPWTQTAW
As to the kind of experiment: Radioligand binding, adrenergic α2B ([3H]Rauwolscine). Particulars: for Ki: read-out: Ki α2B. Put shortly:
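Readout: percent inhibition of specific [3H]Rauwolscine binding, measured by filtration and counting. Conditions: CHO-K1 cell-expressed receptor, 2.5 nM radioligand, 60 min, 25° C, Tris-HCl pH 7.4 buffer with MgCl2, EDTA, BSA. Non-specific binding: 10 μM Prazosin.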

Setting [4] is: SC or PO, 4 hour study period (FIGS. 7-10).
[5] abbreviates: compound at 0.03 μM, [3H]Rauwolscine, repeat assays, each datapoint shown, 0.03 µM.
The mark [6] stands for this setting: compound at 0.03 μM, [3H]Rauwolscine, repeat assays, each datapoint shown, read-out: Percentage inhibition of ligand binding, Adrenergic α2B.
Where [7] appears, read: compound at 0.1 μM, [3H]Rauwolscine, repeat assays, each datapoint shown, read-out: Percentage inhibition of ligand binding, Adrenergic α2B.
Setting [8] is: compound at 0.1 μM, [3H]Rauwolscine, repeat assays, each datapoint shown, 0.1 µM.
Where [9] appears, read: compound at 0.03 μM, [3H]Rauwolscine, repeat datapoints each shown, 0.03 µM.
The mark [10] stands for this setting: read-out: Percentage inhibition of ligand binding, Adrenergic α2B (0.1 μM), compound at 0.1 μM, [3H]Rauwolscine, repeat datapoints each shown.

For `Cc1ccc2c(c1)c1c(n2CC(O)c2ccncc2)CCN(C)C1` (single isomer, unassigned) [3b], the viability at 0.0001 µM in assay [1] was found to be 70.8%. Also, in assay [2] (setting [4]), the systolic blood pressure result is reported as “lowered systolic blood pressure”. Further, the “Percentage inhibition of ligand binding, Adrenergic α2B” value in assay [3] (setting [5]) is 100% and 101% and 102% and 112%. Also, the Ki in assay [3] was 0.26 nM and 0.28 nM and 0.46 nM.

Take `CN1CCc2c(c3cc(Cl)ccc3n2CC(O)c2ccncc2)C1` (single isomer, unassigned) [4a]: in assay [1], the viability at 0.0001 µM amounted to 73.4%. Moreover, the “Percentage inhibition of ligand binding, Adrenergic α2B” value in assay [3] (setting [5]) stood at 103%. In assay [3] (setting [6]), the inhibition at 0.03 µM worked out at 99%. Besides, the inhibition at 0.1 µM in assay [3] (setting [7]) was determined as 104%. Further, the Ki in assay [3] is 0.64 nM.

As to `Cc1ccc2c(c1)c1c(n2CC(C)(O)c2cccnc2)CCN(C)C1` (single isomer, unassigned) [5b, 1-(1,2,3,4-tetrahydro-2,8-dimethylpyrido[4,3-b]indol-5-yl)-2-(pyridin-3-yl)propan-2-ol], in assay [1], the viability at 0.0001 µM came to 76.5%. The “Percentage inhibition of ligand binding, Adrenergic α2B” value in assay [3] (setting [5]) is 81% and 86% and 90% and 100%; in assay [3] (setting [8]), 82% and 100% and 107%. Besides, the Ki in assay [3] is 0.95 nM and 1.06 nM and 4.53 nM.

As for `Cc1ccc2c(c1)c1c(n2CC(O)c2ccncc2)CCN(C)CC1` (single isomer, unassigned) [13b, 2-(3,9-dimethyl-2,3,4,5-tetrahydroazepino[4,5-b]indol-6(1H)-yl)-1-(pyridin-4-yl)ethanol], the systolic blood pressure entry in assay [2] (setting [4]) was “lowered systolic blood pressure”. Moreover, the “Percentage inhibition of ligand binding, Adrenergic α2B” value in assay [3] (setting [5]) is 102%. For the same compound, in assay [3] (setting [6]), the inhibition at 0.03 µM was 100%. The Ki in assay [3] came out at 0.62 nM.

As to `Cc1cnc2c(c1)c1c(n2CC(C)(O)c2cccnc2)CCN2CCCC12` (single isomer, unassigned) [26a], the “systolic blood pressure lowering effects” value in assay [2] is given as “robust”. Moreover, in assay [3] (setting [5]), the “Percentage inhibition of ligand binding, Adrenergic α2B” value is 101% and 107%. In assay [3], the Ki came out at 0.56 nM.

Regarding `Cc1ccc2c(c1)c1c(n2CC(N)c2ccncc2)CCN(C)C1` (single isomer, unassigned) [27a, 2-(1,2,3,4-tetrahydro-2,8-dimethylpyrido[4,3-b]indol-5-yl)-1-(pyridin-4-yl)ethanamine], the “systolic blood pressure lowering effects” value in assay [2] is “robust”. Also, the heart rate result in assay [2] (when systolic blood pressure falls (data not shown)) is “neutral effect on heart rate”. Besides, the “Percentage inhibition of ligand binding, Adrenergic α2B” value in assay [3] (setting [5]) was 76% and 83%; in assay [3] (setting [8]), 94%. In assay [3], the Ki amounted to 4.32 nM.

As for `Cc1ccc2c(c1)c1c(n2CC(O)c2ccncc2)CCNC1` (single isomer, unassigned) [39a, 2-(8-methyl-1,2,3,4-tetrahydro-pyrido[4,3-b]indol-5-yl)-1-pyridin-4-yl-ethanol], the viability at 0.0001 µM in assay [1] was found to be 72.5%. For the same compound, the inhibition at 0.03 µM in assay [3] (setting [6]) came out at 86%. The inhibition at 0.1 µM in assay [3] (setting [7]) came to 92%. The Ki in assay [3] came out at 2.5 nM.

Turning to `CN1CCc2c(n(CC(O)c3ccncc3)c3ccc(Cl)cc23)C1` (single isomer, unassigned) [41a], the systolic blood pressure entry in assay [2] (setting [4]) is on record as “markedly lowered blood pressure”. The “Percentage inhibition of ligand binding, Adrenergic α2B” value in assay [3] (setting [5]) turned out to be 14%.

Turning to `Cc1ccc2c(c1)c1c(n2CC(O)c2ccncc2)CCN2CCCC12` (single isomer, unassigned) [129d], the heart rate entry in assay [2] (oral or iv bolus or i.v. escalating doses) is given as “tachycardia”. Moreover, in assay [2] (oral or iv bolus or i.v. escalating doses (FIGS. 23-25)), the “effects on systolic blood pressure” value was “robust”. Moreover, the Ki in assay [3] is 0.35 nM.

As to `Cc1ccc2c(c1)c1c(n2CC(O)c2ccc(C(N)=O)nc2)CCN(C)C1` (single isomer, unassigned) [144b, 5-[2-(2,8-dimethyl-1,2,3,4-tetrahydro-pyrido[4,3-b]indol-5-yl)-1-hydroxy-ethyl]-pyridine-2-carboxylic acid amide], the systolic blood pressure result in assay [2] (i.v. bolus in 2 minutes (FIG. 19)) is listed as “marked reduction in systolic blood pressure”. For the same compound, in assay [3] (setting [9]), the “Percentage inhibition of ligand binding, Adrenergic α2B (0.03 μM)” value was 85% and 87%. Besides, the “Percentage inhibition of ligand binding, Adrenergic α2B (0.1 μM)” value in assay [3] (compound at 0.1 μM, [3H]Rauwolscine, repeat datapoints each shown, 0.1 µM) is 102%. Moreover, the Ki in assay [3] was 1.7 nM and 2.36 nM. The inhibition at 0.03 µM in assay [3] (read-out: Percentage inhibition of ligand binding, Adrenergic α2B (0.03 μM), compound at 0.03 μM, [3H]Rauwolscine, repeat datapoints each shown) was determined as 83%. For the same compound, the inhibition at 0.1 µM in assay [3] (setting [10]) is 100%.

As to `Cc1ccc2c(c1)c1c(n2CC(C)(O)c2cnccn2)CCN2CCCC12` (single isomer, unassigned) [176a], in assay [2], the “systolic blood pressure lowering effects” value is “robust”. For the same compound, the “Percentage inhibition of ligand binding, Adrenergic α2B (0.03 μM)” value in assay [3] (setting [9]) was 93% and 98% and 100%. Besides, in assay [3], the Ki is 0.53 nM. Moreover, in assay [3] (setting [10]), the inhibition at 0.1 µM came out at 105%.

Turning to `Cc1ccc2c(c1)c1c(n2CC(O)c2ccncc2)CCN(C)C1` (stereo not shown) [compound 3], in assay [2] (setting [4]), the systolic blood pressure result is “dose-dependent reduction in systolic blood pressure”. Moreover, the inhibition at 0.03 µM in assay [3] (setting [6]) came out at 99%. In addition, the “Percentage inhibition of ligand binding, Adrenergic α2B” value in assay [3] (setting [8]) worked out at 103%. Further, the inhibition at 0.1 µM in assay [3] (setting [7]) turned out to be 100%. Moreover, the Ki in assay [3] was found to be 0.64 nM.

The term viability denotes the share of living cells, or the viability signal relative to a control. A word on the Ki: it is the dissociation constant of the complex between target and ligand, obtained from inhibition or displacement. Usually inhibition stands for the relative decrease from the control value, in per cent.
